Experimental findings from patent publication US6051570A, “Benzimidazole derivatives as antiulcer agents, process for their preparation and pharmaceutical compositions containing them” (Dr. Reddy's Research Foundation, priority 1998, dated 2000) are described below.

One assay addresses T1, H^+ /K^+ - ATPase (Oryctolagus cuniculus, UniProt P27112).
T1 construct: Rabbit gastric mucosa containing H^+ /K^+ - ATPase activity is isolated; from tissue; host or cells: rabbit gastric fundic mucosa, membrane fraction (sucrose-step ultracentrifugation pellet)
Put plainly: H+/K+-ATPase inhibition (rabbit gastric mucosa enzyme, Pi liberated by ATP hydrolysis). In kind it is biochemical. The following applies: pH 6.5, 37° C., 15 min. The text has this:
A) H^+ /K^+ - ATPase inhibition
The most efficient method for reducing acid-related gastrointestinal disorder is through the inhibition of proton pump on the gastric parietal cell. The proton pump (H^+ /K^+ ATPase) is a membrane bound enzyme that exchanges protons for K^+ ions across the apical surface. Associated with this is a K^+ /Cl^- cotransporter which recycles the K^+ together with the Cl^- across the apical surface where HCl is formed by the Cl^- ions together with the secreted H^+. This enzyme has an ATP hydrolyzing activity which requires intravesicular K^+.
Principle [formula] Pi liberated is estimated, the amount of Pi liberated is proportional to the enzyme activity.
(i) Preparation of H^+ /K^+ - ATPase […]
Assay is carried out according to the protocol described by Beil, R (Beil, R. Br. J. Pharmacol, 1984, 82:651). […] After incubation for 15 min. at 37° C., the reaction is stopped by adding equal volume of phosphate reagent and the Pi produced by the hydrolysis of ATP is determined by the method of Lin et al. (Lin T -I. & Morales, M. F. Anal. Biochem. 1977, 77:10). The H^+ /K^+ - ATPase activity is calculated by subtracting the basal activity (in absence of KCl) from the rate of hydrolysis of ATP in the presence of K^+. The percent inhibition were determined for the test compounds.

The test system of a further assay is gastric acid secretion. Briefly: Gastric acid antisecretory activity in pylorus ligated rat model (intraduodenal). Type of assay: in vivo, Male wistar rats. The conditions noted are these: for ED50: pylorus ligated rat, read-out: ED50 value (in vivo experiment, gastric acid secretion); for ED50 / inhibition in vivo at 10 mg/kg: intraduodenal, 2 h; for inhibition in vivo at 10 mg/kg: Rattus norvegicus. The method, then:
B) Gastric acid antisecretory activity The inhibitory effect on gastric acid secretion is determined in pylorus ligated rat model according to Shay et al. ([…]., Gruenstein, H. & Siplet, H. Gastroenterology 1945, 5:43). Male wistar rats weighing about 150-200 g fasted for 24 h with ad libitum are used. Under ether anaesthesia the laparotomy is performed and pylorus portion of the stomach is isolated and ligated with surgical suture. The test drug/vehicle is administered intraduodenally and the abdominal incision is closed using Michael clips. After 2 h, the animals were sacrificed with excess ether anaesthesia and stomach is removed. The gastric contents are collected and centrifuged at 10,000 rpm for 10 min. The volume of the gastric juice is measured and acid concentration is estimated by titrating an aliquot of the gastric juice against 0.004N NaOH using phenolphthalein as the indicator. Total acid output is expressed as milliequivalents/L/kg/h and volume of gastric juice as mL/kg/h. The ED50 value for the test compound is calculated according to graphical method. Omeprazole is used as a standard compound.

Where a name gives a salt, the structure may show the parent alone.

T1 sequence (P27112 2-1035 limits assumed): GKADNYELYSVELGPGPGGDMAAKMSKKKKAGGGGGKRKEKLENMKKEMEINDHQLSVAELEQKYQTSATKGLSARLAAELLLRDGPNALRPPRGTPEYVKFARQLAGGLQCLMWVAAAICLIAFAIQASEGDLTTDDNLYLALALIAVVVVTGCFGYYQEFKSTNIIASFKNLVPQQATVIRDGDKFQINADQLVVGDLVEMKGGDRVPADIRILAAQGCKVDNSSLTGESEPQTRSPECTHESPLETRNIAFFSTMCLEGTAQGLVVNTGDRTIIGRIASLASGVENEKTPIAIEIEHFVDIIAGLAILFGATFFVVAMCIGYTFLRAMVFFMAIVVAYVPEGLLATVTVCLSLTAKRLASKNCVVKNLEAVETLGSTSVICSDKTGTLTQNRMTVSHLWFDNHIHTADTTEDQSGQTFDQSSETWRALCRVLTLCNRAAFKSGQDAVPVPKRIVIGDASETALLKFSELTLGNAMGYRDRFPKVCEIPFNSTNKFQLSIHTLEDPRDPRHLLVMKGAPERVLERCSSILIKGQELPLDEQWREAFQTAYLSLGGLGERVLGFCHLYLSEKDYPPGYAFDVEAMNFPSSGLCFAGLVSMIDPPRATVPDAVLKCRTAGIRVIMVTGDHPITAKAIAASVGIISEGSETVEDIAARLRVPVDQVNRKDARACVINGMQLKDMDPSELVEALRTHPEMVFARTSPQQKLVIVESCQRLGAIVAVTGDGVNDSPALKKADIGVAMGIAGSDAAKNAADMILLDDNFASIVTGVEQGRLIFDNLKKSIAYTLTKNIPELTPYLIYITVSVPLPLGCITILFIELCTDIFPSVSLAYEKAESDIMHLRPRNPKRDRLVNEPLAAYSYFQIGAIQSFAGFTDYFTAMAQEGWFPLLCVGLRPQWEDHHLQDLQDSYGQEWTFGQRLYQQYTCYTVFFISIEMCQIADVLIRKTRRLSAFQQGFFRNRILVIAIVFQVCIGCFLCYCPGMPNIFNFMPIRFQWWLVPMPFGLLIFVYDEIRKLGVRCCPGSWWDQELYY
T1 sequence (P18597 whole entry partner): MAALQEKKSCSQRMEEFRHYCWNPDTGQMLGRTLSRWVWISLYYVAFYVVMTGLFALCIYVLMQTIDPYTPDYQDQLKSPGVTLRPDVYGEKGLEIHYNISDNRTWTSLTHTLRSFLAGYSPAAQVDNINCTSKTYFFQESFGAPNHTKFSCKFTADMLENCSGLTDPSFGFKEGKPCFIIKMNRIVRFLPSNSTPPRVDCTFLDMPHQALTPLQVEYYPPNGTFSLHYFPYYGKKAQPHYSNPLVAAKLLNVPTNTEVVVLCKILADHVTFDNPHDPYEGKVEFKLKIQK

The IC50 is the concentration that gives 50% inhibition. Broadly, the ED50 is the dose that gives a 50% effect, or the effect in half of the subjects. On to `COc1ccnc(C[S+]([O-])c2nc3cc(N4CCOCC4)c(F)cc3[nH]2)c1C` (stereo not shown) [Example 57, 2-[[(4-Methoxy-3-methyl)pyridin-2-yl]methylsulfinyl]-6-fluoro-5-(morpholin-1-yl)-1H-benzimidazole], for which, at H^+ /K^+ - ATPase, the IC50 worked out at 2.6 µM. Moreover, the ED50 in the assay with gastric acid secretion was 3 ± 0.2 mg/kg.
By inhibition in vivo is commonly meant the drop in the measured response relative to a control, in per cent. A higher inhibition in vivo goes with a strong effect. `COc1ccnc(C[S+]([O-])c2nc3cc(N4CCCCC4)c(F)cc3[nH]2)c1C` (stereo not shown) [Example 67, 2-[[(4-Methoxy-3-methyl)pyridin-2-yl]methylsulfinyl]-6-fluoro-5-(piperidin-1-yl)-1H-benzimidazole] gave an inhibition in vivo at 10 mg/kg in the assay with gastric acid secretion of 100%.
One may read the % Inhibition as the percentage by which the read-out fell short of the control. The low end stands for a weak effect, the high end for a strong effect. Consider `COc1ccnc(C[S+]([O-])c2nc3cc(N4CCCCC4)c(F)cc3[nH]2)c1C` (stereo not shown) [Example 68, 2-[[(4-Methoxy-3-methyl)pyridin-2-yl]metlhylsulfinyl]-6-fluoro-5-(piperidin-1-yl)-1H-benzimidazole, sodium salt], for which the “% Inhibition at 10 mg/kg” value with gastric acid secretion is listed as 100%.
Take `Cc1c(N2CCCCC2)ccnc1C[S+]([O-])c1nc2cc(N3CCCCC3)c(F)cc2[nH]1` (stereo not shown) [Example 69]: in the assay on gastric acid secretion, testing at 10 mg/kg gave an inhibition in vivo of 97%.
As to `COc1ccnc(C[S+]([O-])c2nc3cc(N4CCN(C(=O)OC(C)(C)C)CC4)c(F)cc3[nH]2)c1C` (stereo not shown) [Example 73, 2-[[(4-Methoxy-3methyl)pyridin-2-yl]methylsulfinyl]-6-fluoro-5-(4-t-butyloxycarbonylpiperazin-1-yl)-1H-benzimidazole], testing at 10 mg/kg in the assay on gastric acid secretion gave an inhibition in vivo of 93%.
Same read-out and setting: as for `COc1ccnc(C[S+]([O-])c2nc3cc(N4CCCCCC4)c(F)cc3[nH]2)c1C` (stereo not shown) [Example 80, 2-[[(4-Methoxy-3-methyl)pyridin-2-yl]methylsulfinyl]-6-fluoro-5-(hexamethyleneimin-1-yl)-1H-benzimidazole], the figure is 100%.
Regarding `COc1ccnc(C[S+]([O-])c2nc3cc(N4CCCCCC4)c(F)cc3[nH]2)c1C` (stereo not shown) [Example 81, 2-[[(4-Methoxy-3-methyl)pyridin-2-yl]methylsulfinyl]-6-fluoro-5-(hexamethyleneimin-1-yl)-1H-benzimidazole, sodium salt], the “% Inhibition at 10 mg/kg” value in the assay with gastric acid secretion stood at 100%.
Consider `Cc1c(N2CCOCC2)ccnc1C[S+]([O-])c1nc2cc(N3CCCCCC3)c(F)cc2[nH]1` (stereo not shown) [Example 82, 2-[[(4-(Morpholin-1-yl)-3-methyl)pyridin-2-yl]methylsulfinyl]-6-fluoro-5-(hexamethyleneimin-1-yl)-1H-benzimidazole], for which the inhibition in vivo at 10 mg/kg with gastric acid secretion amounted to 100%.
Still for that read-out and setting: as for `COc1ccnc(C[S+]([O-])c2nc3cc(N4CCCC4)c(F)cc3[nH]2)c1C` (stereo not shown) [Example 84, 2-[[(4-Methoxy-3-methyl)pyridin-2-yl]methylsulfinyl]-6-fluoro-5-(pyrrolidin-1-yl)-1H-benzimidazole], the figure is 93%.
Still for that read-out and setting: then `COc1ccnc(C[S+]([O-])c2nc3cc(N4CCOCC4)ccc3[nH]2)c1C` (stereo not shown) [Example 87, 2-[[(4-Methoxy-3-methyl)pyridin-2-yl]methylsulfinyl]-5-(morpholin-1-yl)-1H-benzimidazole], with 90%.
With `COc1ccnc(C[S+]([O-])c2nc3cc(N4CCN(C(=O)OC(C)(C)C)CC4)ccc3[nH]2)c1C` (stereo not shown) [Example 90, 2-[[(4-Methoxy-3-methyl)pyridin-2-yl]methylsulfinyl]-5-(4-t-butyloxycarbonylpiperazin-1-yl)-1H-benzimidazole], the inhibition in vivo at 10 mg/kg in the assay on gastric acid secretion was found to be 100%.
Consider `COc1ccnc(C[S+]([O-])c2nc3cc(N4CCCCCC4)ccc3[nH]2)c1C` (stereo not shown) [Example 91, 2-[[-(4-Methoxy-3-methyl)pyridin-2-yl]methylsulfinyl]-5-(hexamethyleneimin-1-yl)-1H-benzimidazole], for which the inhibition in vivo at 10 mg/kg in the assay with gastric acid secretion came to 97%.
Take `COc1ccc2[nH]c([S+]([O-])Cc3ncc(C)c(OC)c3C)nc2c1` (stereo not shown) [Omeprazole, 2-[[(4-methoxy-3,5-dimethyl)pyridin-2-yl]methylsulfinyl]-5-methoxy-1H-benzimidazole, reference compound]: the IC50 on H^+ /K^+ - ATPase was determined as 4.35 ± 0.56 µM. In the assay with gastric acid secretion, 10 mg/kg produced 75% inhibition in vivo and the ED50 stood at 4.96 ± 0.5 mg/kg.
